In patent US4939142A, “Substituted styrene derivatives” (priority 1989, dated 1990):

Key:
[1] = test system: maximal electroshock; assay: Inhibition of maximal electroshock on mice; settings: for ED50: Mus musculus, po; for Therapeutical index: Table VI, maximal electroshock, LD50/ED50
Description: The test is carried out on white mice weighing 20-25 g. The animals receive an electric shock through corneal electrodes (50 Hz; 45 mA, 0.4 sec.). A total inhibition of the tonus extensor spasms of the posterior extremities is regarded as the criterium of anticonvulsive effect. The test compound and the carrier, respectively, are administered orally an hour before the electric shock.

[2] = test system: hexobarbital narcosis; assay: Hexobarbital narcosis potentiating effect; settings: for ED50: Mus musculus, po; for Therapeutical index LD50 /ED50: Table I, hexobarbital narcosis
Description: The test is carried out on white mice. Groups consisting of six mice are used for each dose and test compound. The test compound is administered orally and an hour after this treatment narcosis is induced by means of a 40 mg/kg i.v. dose of hexobarbital. The control group receives carrier instead of the test compound.
Those mice are considered to be having a positive reaction which show a narcosis time at least 2.5 times longer than that of the control group. The ED50 values thus transformed are calculated.

[3] = test system: motility; assay: animal or person; type: in vivo; settings: for ED50: Mus musculus, po; for Therapeutical index: Table II, motility inhibition, LD50/ED50
Description: The test is accomplished according to the method of Borsy et al. in a 10-channel Dews system equipment, whereby 3 mice are used per channel. The test compound or the carrier, respectively, is administered orally, and one hour after the said treatment the animals are placed into the apparatus and the number of the interruptions of infrared radiation is registered for 30 minutes.
The results are summarized in Table II and documented by means of suitable statistics for each experiment.
[J. Borsy, E. Csanyi, I. Lazar: Arch. Int. Pharmacodyn. 124, 1 (1960)].

[4] = in vivo; settings: mouse, in vivo, po
Description: (§1) Male and female white mice (CFLP strain, 18-22 g) are used, 10 animals per dose. The test compounds are administered orally in a volume of 20 ml/kg. After administration the mice are observed for a period of 7 days. The animals are kept in plastic boxes, on wood litter, at room temperature. The animals receive standard mouse fodder and tap water ad libitum.

[5] = test system: nicotine spasm and lethality; assay: Inhibition of nicotine spasm and lethality on mice (Stone); type: in vivo; settings: Table VIII; for ED50: Mus musculus, oral, 1 h before nicotine 1.4 mg/kg i.v.; for Therapeutical index: nicotine spasm and lethality, LD50/ED50
From the text: [Stone, C. C., Mecklenburg, K. L., Torchiana, M. L.: Arch. Int.

[6] = test system: tetrabenazine ptosis; assay: Tetrabenazin ptosis antagonism (Hoffmeister et al.); type: in vivo; settings: Table III; for ED50: Mus musculus, oral, 30 min before tetrabenazin 50 mg/kg i.p.; for Therapeutical index: tetrabenazin ptosis, LD50/ED50
Description: The test is carried out by the method of Hoffmeister et al. adapted to mice. Groups consisting of 10-20 animals are treated orally with each dose of the test compound. The control group is treated orally with the carrier. Thirty minutes later a 50 mg/kg i.p. tetrabenazine dose is administered, whereupon after 30, 60, 90 and 120 minutes the animals with closed eye-lids are counted in each group.
On the basis of all measurements an average ptosis is calculated for each group and expressed as the percentile deviation (inhibition) from the control group. On the basis of the data thus obtained ED50 values are calculated.
[Hoffmeister, F., Wuttke, W., and Kroneberg, G.: Arzneim. Forsch. (Drug.

[7] = test system: pentetrazole spasm; assay: Inhibition of pentetrazol spasm on mice; settings: for ED50: Mus musculus, po; for Therapeutical index: Table V, pentetrazole spasm, LD50/ED50
Description: The modified method of Benziger and Hane is used on white mice. Groups consisting of 6 animals are used for each dose. […] The test compounds are administered orally one hour before the treatment with pentetrazole; in the control group the animals obtain the carrier orally at the same points of time.
The therapeutical index data disclosed in the above Tables are calculated by means of the following equation: [formula]

[8] = test system: yohimbin toxicity; assay: animal or person; settings: for ED50: Mus musculus; for Therapeutical index: Table IV, yohimbin toxicity, LD50/ED50
Description: The test is carried out according to the method of Quinton. Groups consisting of 10 mice are used for each dose. The animal groups are treated with the suitable doses of the test compounds while the control group is treated with a carrier. An hour after the treatment a sublethal dose of yohimbin is administered intraperitoneally in a volume of 20 ml/kg. The perished animals are counted after 1 and 24 hours.

[9] = test system: acetic acid writhing; assay: Acetic acid "writhing test" on mice (Newbould); type: in vivo, white mice; settings: Table VII; for ED50: Mus musculus, oral, 1 h before acetic acid i.p., read-out: ED50; for Therapeutical index: acetic acid writhing, LD50/ED50
Description: In the period between the 5th and 10th minutes following the administration of acetic acid the number of the characteristic "writhing" responses is counted for each animal and the "total writhing number" (within 5 minutes) is expressed as the percentage of the value obtained for the control animals. The mice are treated with the test compound and the carrier, respectively, orally 1 hour before the administration of acetic acid. 12 animals are used per dose.
[Newbould, B. D.: Brit.

[10] = test system: experimental coronary insufficiency induced by vasopressine; assay: Antianginal effect on rats, vasopressine-induced coronary insufficiency, T-wave (Nieschultz); type: in vivo, male rats; settings: Table IX, dose 2 mg/kg, vasopressine 1 IU/kg i.v.
Description: The test is carried out on male rats weighing 180-220 g. The animals are narcotized with the aid of chloralose urethane (70-700 mg/kg i.p.). ECG is registered by means of needle electrodes in standard II output. Antianginal effect is tested according to the method of Nieschultz. Experimental coronary insufficiency is induced by administering vasopressine (1 IU/kg i.v.) on 10-12 animals for each dose. The magnitude of the T-wave before and after the administration of vasopressine is measured in the treated and control groups.

[11] = test system: mice; assay: in vivo; settings: 10080 min
Description: as §1

[12] = test system: ulcus secretion; assay: animal or person; type: in vivo; settings: for ED50: Rattus norvegicus, po, 5 h; for Therapeutical index: Table X, ulcus secretion, LD50/ED50
Description: The test is carried out according to the method of Nakamura on rats (Wistar strain) weighing 150-230 g and fasted for 48 hours. Each animal group consists of 4 male and 4 female rats. On the day of the experiment the pylorus of the animals is bound and the corresponding dose of the test compound is administered orally immidiately after operation. The animals are killed with ether 5 hours after the operation, their stomach is removed, cut along the large curve and placed on plastic plates.

CC(CO/N=C1C=C(/C=C/c2ccccc2)CC(C)(C)C/1)CN(C)C (racemic) [Example 13, D,L-5,5-Dimethyl-3-(E)-phenyl-vinyl-1-(E)-(3'-dimethylamino-2'-methyl-propoxyimino)-2-cyclohexene]
ED50 [1]: 64 mg/kg
Therapeutical index [1]: 28.1
ED50 [2]: 9 mg/kg
Therapeutical index LD50 /ED50 [2]: 200.0
ED50 [3]: 100 mg/kg
Therapeutical index [3]: 18.0
LD50 at 168 h [4]: 1800 mg/kg

CC(CO/N=C1C=C(/C=C/c2ccc(Cl)cc2)CC(C)(C)C/1)CN(C)C (racemic) [Example 18, D,L-5,5-Dimethyl-3-(E)-[(4'-chloro-phenyl)-vinyl]-1-(E)-(3"-dimethylamino-2"-methyl-propoxyimino)-2-cyclohexene]
ED50 [5]: 88 mg/kg
Therapeutical index [5]: 22.7
ED50 [6]: 40 mg/kg
Therapeutical index [6]: 50.0
LD50 at 168 h [4]: 2000 mg/kg
ED50 [7]: 190 mg/kg
Therapeutical index [7]: 10.5

CN(C)CCC=C1c2ccccc2CCc2ccccc21 [Amitriptylin, reference compound]
ED50 [8]: 12.5 mg/kg
Therapeutical index [8]: 18
ED50 [6]: 12 mg/kg

CN(C)CCCO/N=C1C=C(/C=C/c2ccccc2)CC(C)(C)C/1 [Example 1, 5,5-Dimethyl-3-(E)-phenyl-vinyl-1-(E)-(3'-dimethylamino-propoxyimino)-2-cyclohexene]
ED50 [1]: 110 mg/kg
Therapeutical index [1]: 11.8
ED50 [3]: 60 mg/kg
Therapeutical index [3]: 22.0
ED50 [9]: 160 mg/kg
Therapeutical index [9]: 8.1
ED50 [5]: 12 mg/kg
Therapeutical index [5]: 108.0
LD50 at 168 h [4]: 1300 mg/kg
ED50 [7]: 56 mg/kg
Therapeutical index [7]: 23.2

CN(C)CCO/N=C1C=C(/C=C/c2ccccc2)CC(C)(C)C/1 [Example 3, 5,5-Dimethyl-3-(E)-phenyl-vinyl-1-(E)-(2'-dimethylamino-ethoxyimino)-2-cyclohexene]
ED50 [1]: 88 mg/kg
Therapeutical index [1]: 11.4
ED50 [3]: 58 mg/kg
Therapeutical index [3]: 17.0
ED50 [5]: 33 mg/kg
Therapeutical index [5]: 30.3
LD50 at 168 h [4]: 1000 mg/kg
ED50 [7]: 68 mg/kg
Therapeutical index [7]: 14.7

CN(C)CCCO/N=C1C=C(/C=C/c2cccc(Cl)c2)CC(C)(C)C/1 [Example 8, 5,5-Dimethyl-3-(E)-[(3'-chloro-phenyl)-vinyl]-1-(E)-(3"-dimethylamino-propoxyimino)-2-cyclohexene]
ED50 [2]: 180 mg/kg
Therapeutical index LD50 /ED50 [2]: 11.1
ED50 [3]: 170 mg/kg
Therapeutical index [3]: 11.8
ED50 [9]: 178 mg/kg
Therapeutical index [9]: 11.2
ED50 [5]: 35 mg/kg
ED50 [8]: 35 mg/kg
Therapeutical index [8]: 57.1
LD50 at 168 h [4]: 2000 mg/kg
ED50 [7]: 58 mg/kg
Therapeutical index [7]: 34.5

CC1(C)CC(/C=C/c2ccc(Cl)cc2)=CC(=N/OCCCN2CCN(Cc3ccccc3)CC2)/C1 [Example 20, 5,5-Dimethyl-3-(E)-[(4'-chloro-phenyl)-vinyl]-1-(E)-(4"-phenyl-methyl-1"-piperazinyl-propoxyimino)-2-cyclohexene]
Inhibition % [10]: -54.4%
ED50 [6]: 8.5 mg/kg
Therapeutical index [6]: 235.3
LD50 at 168 h [4]: 2000 mg/kg

CC1(C)CC(/C=C/c2ccccc2Cl)=CC(=N/OCCN2CCCCC2)/C1 [Example 26, 5,5-Dimethyl-3-(E)-[(2'-chloro-phenyl)-vinyl]-1-(E)-(N-piperdinyl-ethoxyimino)-2-cyclohexene]
ED50 [3]: ~200 mg/kg
Therapeutical index [3]: > 5.0
LD50 ([11]; Table II, oral, mice): > 1000 mg/kg
LD50 at 168 h [4]: > 1000 mg/kg
ED50 [12]: ~50 mg/kg
Therapeutical index [12]: above 20

CC1(C)CC(/C=C/c2cccc(Cl)c2)=CC(=N/OCCN2CCOCC2)/C1 [Example 28, 5,5-Dimethyl-3-(E)-[(3'-chloro-phenyl)-vinyl]-1-(E)-(N-morpholino-ethoxyimino)-2-cyclohexene]
Inhibition % [10]: -31%

COc1cccc(/C=C/C2=CC(=N/OCCN3CCOCC3)/CC(C)(C)C2)c1 [Example 29, 5,5-Dimethyl-3-(E)-[(3'-methoxy-phenyl)-vinyl]-1-(E)-(N-morpholino-ethoxyimino)-2-cyclohexene]
ED50 [2]: 21.5 mg/kg
Therapeutical index LD50 /ED50 [2]: > 93.0
ED50 [3]: ~200 mg/kg
Therapeutical index [3]: > 10.0
ED50 [9]: ~160 mg/kg
Therapeutical index [9]: > 12.5
LD50 ([11]; Table I, oral, mice): > 2000 mg/kg
LD50 ([11]; Table II, oral, mice): > 2000 mg/kg
LD50 ([11]; Table X): above 2000 mg/kg
LD50 at 168 h [4]: > 2000 mg/kg
ED50 [12]: ~200 mg/kg
Therapeutical index [12]: above 10.0

COc1cccc(/C=C/C2=CC(=N/OCCCN3CCOCC3)/CC(C)(C)C2)c1 [Example 30, 5,5-Dimethyl-3-(E)-[(3'-methoxy-phenyl)-vinyl]-1-(E)-(N-morpholino-propoxyimino)-2-cyclohexene]
ED50 [2]: 21.5 mg/kg
Therapeutical index LD50 /ED50 [2]: > 93.0
ED50 [3]: ~200 mg/kg
Therapeutical index [3]: > 10.0
Inhibition % [10]: -45%
LD50 ([11]; Table I, oral, mice): > 2000 mg/kg
LD50 ([11]; Table II, oral, mice): > 2000 mg/kg
LD50 at 168 h [4]: > 2000 mg/kg
ED50 [12]: ~150 mg/kg
Therapeutical index [12]: above 13.3

COc1ccccc1/C=C/C1=CC(=N/OCCN2CCCCC2)/CC(C)(C)C1 [Example 33, 5,5-Dimethyl-3-(E)-[(2'-methoxy-phenyl)-vinyl]-1-(E)-(N-piperidinyl-ethoxyimino)-cyclohexene]
Inhibition % [10]: -47.1%
LD50 at 168 h [4]: > 1000 mg/kg
ED50 [7]: 63 mg/kg
Therapeutical index [7]: > 15.9

CC1(C)CC(/C=C/c2cccc(Cl)c2)=CC(=N/OCCCN2CCOCC2)/C1 [Example 34, 5,5-Dimethyl-3-(E)-[(3'-chloro-phenyl)-vinyl]-1-(E)-(N-morpholino-propoxyimino)-2-cyclohexene]
ED50 [9]: ~200 mg/kg
Therapeutical index [9]: > 10.0
LD50 ([11]; Table VII, oral, mice): > 2000 mg/kg
LD50 ([11]; Table X): above 2000 mg/kg
LD50 at 168 h [4]: > 2000 mg/kg
ED50 [7]: 180 mg/kg
Therapeutical index [7]: > 11.0
ED50 [12]: ~100 mg/kg
Therapeutical index [12]: above 20.0

CN1C(=O)OC(C)(C)C1=O [Trimethadion, reference compound]
ED50 [1]: 400 mg/kg
Therapeutical index [1]: 5.1
ED50 [7]: 490 mg/kg

COc1cc(C(=S)N2CCOCC2)cc(OC)c1OC [Trithiozine, reference compound]
ED50 [12]: ~240 mg/kg
